Measurements published in US9394544B2, “Ameliorating oxidative stress in neurodegenerative disease via Nox1 targeting” (University of Central Florida Research Foundation, Inc., priority 2013, dated 2016).

Key:
Nox1 = Nox1 expression (RT-PCR, immunoblot) in N27 cells exposed to toxins; type: cell-based, rat; details: N27 cells
Description: The NADPH oxidase is a multi-subunit enzyme that consists of the catalytic subunits (Nox isoforms) together with the regulatory subunits including p22phox, p47phox, p40phox, p67phox, Nox organizer 1 (Noxo1), Nox activator 1 (Noxa1), and small GTPase Rac1. In order to test whether dopaminergic (DA) cells are equipped with the NOX components, N27, a well-established rat DA cell line was examined (Prasad et al. 1994). The mRNAs encoding each Nox isoform and regulatory subunits were detected using RT-PCR. Since transcriptional induction of Nox1 and Nox4 has already been reported in several tissues under a variety of stimuli, transcripts were determined in both nontreated and 6-hydroxydopamine (6-OHDA), a DA neurodegenerative compound, treated DA cells. ROS generation as induced by 6-OHDA (100 μM) and subsequent cell death was observed. All Nox isoforms (Nox1, Nox2, Nox4, Duox1 and Duox2) except Nox3 and Nox5 were detected (FIG. 1A). […] Mitochondria, which have long been considered as a major source of ROS, play a key role in Nox1-mediated superoxide generation (Desouki et al. 2005). […] Cytoplasmic regulatory subunits including p47phox, Noxa1, and Noxo1 were constitutively expressed in DA cells as well (FIG. 1A). Noxa1 and Noxo1 are homologues of p67phox and p47phox, respectively. They are involved in Nox1-mediated superoxide generation (Banfi et al. 2003, Geiszt et al. 2003). […] The activation of a small GTPase Rac1 is indispensable for Nox1 and Nox2 activation (Bokoch 2002). GTP-bound active Rac1 was measured in DA cells treated with 6-OHDA for various duration from 1 h to 6 h.
Total RNA was extracted from N27 cells using Trizol reagent (Invitrogen, Carlsbad, Calif.). Reverse transcription was performed for 1 h at 42° C. with 1 μg of total RNA using 20 unit/μl of AMV reverse transcriptase (Roche Applied Science, Indianapolis, Ind.), and oligo-p(dT)15 as a primer. The samples were then heated at 99° C. for 5 min to terminate the reaction. The cDNA obtained from 1 μg total RNA was used as a template for PCR amplification. Oligonucleotide primers were designed based on Genebank entries for rat NOX1 (sense, 5′-[…]-3′ SEQ ID NO. 1; antisense, 5′-[…]-3′ SEQ ID NO. 2), rat NOX2 (sense, 5′-[…]-3′ SEQ ID NO. 3; antisense, 5′-[…]-3′ SEQ ID NO. 4), rat NOX4 (sense, 5′-[…]-3′ SEQ ID NO. 5; antisense, 5′-[…]-3′ SEQ ID NO. 6), rat NOXA1 (sense, 5′-[…]-3′ SEQ ID NO. 7; antisense, 5′-[…]-3′ SEQ ID NO. 8), rat NOXO1 (sense, 5′-[…]-3′ SEQ ID NO. 9; antisense, 5′-[…]-3′ SEQ ID NO. 10), rat p47 (sense, 5′-[…]-3′ SEQ ID NO 11; antisense, 5′-[…]-3′ SEQ ID NO. 12), rat Duox1 (sense, 5′-[…]-3′ SEQ ID NO. 13; antisense, 5′-[…]-3′SEQ ID NO. 14), rat Duox2 (sense, 5′-[…]-3′ SEQ ID NO. 15; antisense, 5′-[…]-3′ SEQ ID NO. 16) and rat GAPDH (sense, 5′-[…]-3′ SEQ ID NO. 17; antisense, 5′-[…]-3′ SEQ ID NO. 18). PCR mixes contained 10 μl of 2×PCR buffer, 1.25 mM of each dNTP, 10 pmol of each forward and reverse primer, and 2.5 units of Taq polymerase in the final volume of 20 μl. Amplification was performed in 35 cycles at 60° C., 30 sec; 72° C., 1 min; 94° C., 30 sec. After the last cycle, all samples were incubated for an additional 10 min at 72° C. for final extension step. PCR fragments were analyzed on 1.2% agarose gel in 0.5×TAE containing ethidium bromide. Amplification of GAPDH, a relatively invariant internal reference RNA, was performed in parallel, and cDNA amounts were normalized against GAPDH mRNA levels. The primer set specifically recognized only the gene of interest as indicated by amplification of a single band of expected size. […]

[1] = system: Flag-tagged wild-type (WT) α-synuclein; assay: Aggregation of overexpressed flag-tagged WT α-synuclein in N27 cells exposed to PQ; type: cell-based, rat
Method: Human α-synuclein was cloned into the p3xFLAG-myc-CMV-23 expression vector (Sigma) for N- and C-terminal tagging with FLAG and Myc, respectively. For transient overexpression of tagged α-synuclein, N27 cells were plated onto 24-well plates with coverslips at 0.5×10^5 cells per well 1 d before transfection. The next day, cells were transiently transfected with FLAG-WTsyn-myc. Briefly, 1 μg of plasmid DNA was mixed with 6 μl of Lipofectamine 2000 (Invitrogen) in 100 μl of Opti-MEM for 20 min before addition in the culture. After 6 h of incubation, the culture medium was changed and 100 μl of Nox1 shRNA/LVX viral particle was added to each well. Cells were maintained for an additional 36 h before treatment with 800 μM or 1000 μM PQ for 8 and 24 h.
After each respective treatment, cells were fixed in 4% paraformaldehyde (PFA) for 20 min and permeabilized with 0.1% Triton X-100 in PBS for 10 min. Blocking was performed by incubation with 20% goat or donkey serum in PBS containing 0.1% Tween 20 for 90 min at room temperature. […] For quantification of Flag^+ and α-synuclein^+ cells, >30 different fields per coverslip were analyzed on a Nikon inverted fluorescent microscope under a 20× and 40× magnification.

Row | SMILES | Nox1 mRNA (RT-PCR) (Nox1; 100 μM, 6 h) | Nox1 expression (immunoblot) (Nox1; 24 h) | increase of flag-tagged WT α-synuclein aggregation vs control cells [1] [fold]
1 | NCCc1cc(O)c(O)cc1O [6-OHDA, 6-hydroxydopamine] | robustly induced | induced Nox1 expression in a dose-dependent manner | 
2 | C[n+]1ccc(-c2cc[n+](C)cc2)cc1 [PQ, paraquat] |  |  | 2.5
